In ChEMBL document CHEMBL1201862, “PubChem BioAssay data set” (2004):
Calls of active or inactive are those of the source.

Experiments:
[1] = HeLa 2N DNA content increase, dose response, cell-based, IC50 (AID 1117349); format: functional
[2] = Concentration-dependent survival of SW480 colon cancer line, luminescence detection with CellTiter-Glo, half-maximal inhibitory concentration (AID 1117338); format: functional
[3] = RKO cell viability reduction, dose response, CellTiter-Glo luminescence (AID 1117322); format: functional
[4] = cytotoxicity toward HCT116 cells – cell-based, CellTiter-Glo luminescence, IC50, dose response (AID 1117332); format: functional; conditions: HCT-116
[5] = SNU-C1 cell viability reduction, dose response, CellTiter-Glo luminescence (AID 1117323); format: functional, cell-based
[6] = cytotoxicity toward Colo320 cells – cell-based, CellTiter-Glo luminescence, IC50, dose response (AID 1117334); format: functional; conditions: COLO 320
[7] = HeLa 4N DNA content increase, dose response, cell-based, IC50 (AID 1117351); format: functional
[8] = cytotoxicity toward HT-29 cells – cell-based, CellTiter-Glo luminescence, IC50, dose response (AID 1117330); format: functional
[9] = CellTiter-Glo luminescent dose response of DLD-1 viability loss (AID 1117352); format: functional
[10] = P. falciparum late gametocyte killing, dose response, luminescence (AID 1117278); format: functional, cell-based;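 further: gametocytes exposed to compound for 24 hours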
[11] = Jurkat T cell cytotoxicity, dose response, cytotoxicity control for P. falciparum gametocyte viability project, luminescence (AID 1117277); format: functional, cell-based;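 further: potency reflects loss of cellular ATP meaning fewer viable cells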
[12] = system: Streptococcus sp. 'group A'; experiment: growth inhibition of control SK(-) GAS strain, dose response, counter-screen for streptokinase expression inhibitor project, luminescence, kanamycin, BacTiterGlo, confirmation (AID 1900); format: functional, organism-based
Streptokinase A = target: T1, Streptokinase A (Streptococcus pyogenes serotype M1, UniProt P10520); experiment: S. pyogenes streptokinase expression inhibitors, potency, dose response, plasminogen activation absorbance, OD405 (AID 1914); format: functional, Streptococcus pyogenes M1 GAS;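 further: secreted streptokinase activity via plasminogen activation per viability signal from cell pellet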
T1 sequence (P10520 whole entry): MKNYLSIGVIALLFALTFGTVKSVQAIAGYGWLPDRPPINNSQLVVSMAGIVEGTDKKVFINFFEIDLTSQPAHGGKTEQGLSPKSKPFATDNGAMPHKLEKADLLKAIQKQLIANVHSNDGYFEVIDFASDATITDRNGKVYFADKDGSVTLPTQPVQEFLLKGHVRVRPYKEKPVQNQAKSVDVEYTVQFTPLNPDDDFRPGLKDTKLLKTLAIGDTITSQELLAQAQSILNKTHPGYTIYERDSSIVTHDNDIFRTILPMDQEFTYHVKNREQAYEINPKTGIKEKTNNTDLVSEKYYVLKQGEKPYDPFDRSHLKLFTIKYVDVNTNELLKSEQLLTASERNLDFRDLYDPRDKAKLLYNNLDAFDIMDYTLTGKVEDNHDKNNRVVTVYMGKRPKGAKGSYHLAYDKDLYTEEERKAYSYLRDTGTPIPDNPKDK

Streptococcus = experiment: Group A Streptococcus viability loss, dose response, counter-screen for streptokinase expression inhibitor project, luminescence, BacTiterGlo (AID 1915); format: functional, organism-based;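 further: potency for reduction of bacterial viability or growth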
[13] = target: T2, Mannose-6-phosphate isomerase (Homo sapiens, UniProt P34949); experiment: human PMI inhibitors, high substrate, primary screen, biochemical, fluorescence intensity, high mannose 6-phosphate (AID 1220)
T2 sequence (P34949 whole entry): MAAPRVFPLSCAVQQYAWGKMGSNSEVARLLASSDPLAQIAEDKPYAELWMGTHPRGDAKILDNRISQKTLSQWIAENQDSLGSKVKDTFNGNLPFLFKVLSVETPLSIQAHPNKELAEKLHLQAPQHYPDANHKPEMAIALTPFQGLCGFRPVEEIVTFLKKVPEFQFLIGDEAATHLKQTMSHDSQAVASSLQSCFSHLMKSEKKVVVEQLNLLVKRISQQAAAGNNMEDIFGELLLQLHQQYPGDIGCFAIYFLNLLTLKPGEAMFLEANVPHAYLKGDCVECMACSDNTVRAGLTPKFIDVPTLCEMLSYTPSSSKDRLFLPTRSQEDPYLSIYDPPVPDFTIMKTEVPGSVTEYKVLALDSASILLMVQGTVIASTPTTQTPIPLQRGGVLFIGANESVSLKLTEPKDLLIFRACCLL

Vero = Vero cell cytotoxicity, cytotoxicity control for flavivirus capping enzyme inhibitors (AID 588742); format: functional; conditions: Chlorocebus sabaeus
[14] = target: T3, Rac GTPase-activating protein 1 (Homo sapiens, UniProt Q9H0H5); experiment: MgcRacGAP GTPase-activating activity inhibitors, confirmation, biochemical, ADP Hunter fluorescence, primary and confirmatory (AID 624330); format: functional
T3 sequence (Q9H0H5 whole entry): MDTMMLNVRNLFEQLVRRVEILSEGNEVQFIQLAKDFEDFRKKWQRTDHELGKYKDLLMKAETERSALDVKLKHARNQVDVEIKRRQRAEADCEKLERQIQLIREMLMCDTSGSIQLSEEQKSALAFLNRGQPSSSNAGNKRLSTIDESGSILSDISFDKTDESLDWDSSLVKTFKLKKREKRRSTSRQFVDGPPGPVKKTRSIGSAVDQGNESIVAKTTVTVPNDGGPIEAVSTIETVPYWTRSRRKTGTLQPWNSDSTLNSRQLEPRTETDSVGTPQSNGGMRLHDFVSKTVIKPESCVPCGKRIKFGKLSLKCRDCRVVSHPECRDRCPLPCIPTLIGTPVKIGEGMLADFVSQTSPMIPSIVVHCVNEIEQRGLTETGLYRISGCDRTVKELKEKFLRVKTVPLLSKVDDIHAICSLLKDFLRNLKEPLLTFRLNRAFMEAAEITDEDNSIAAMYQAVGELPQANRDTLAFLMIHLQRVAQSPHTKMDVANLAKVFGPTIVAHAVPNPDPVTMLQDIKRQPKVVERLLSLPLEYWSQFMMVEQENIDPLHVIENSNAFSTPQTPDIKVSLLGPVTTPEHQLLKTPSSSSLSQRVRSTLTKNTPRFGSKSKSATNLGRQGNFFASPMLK

[15] = M. tuberculosis H37Rv growth inhibitors, H37Rv strain (AID 1626); format: functional
[16] = target: T4, Carboxy-terminal domain RNA polymerase II polypeptide A small phosphatase 1 (Homo sapiens, UniProt Q9GZU7); experiment: inhibitors of CTDSP1, concentration-response testing, biochemical assay, absorbance-based, actives from ultra-high-throughput screening (AID 540297); format: functional
T4 sequence (Q9GZU7 whole entry): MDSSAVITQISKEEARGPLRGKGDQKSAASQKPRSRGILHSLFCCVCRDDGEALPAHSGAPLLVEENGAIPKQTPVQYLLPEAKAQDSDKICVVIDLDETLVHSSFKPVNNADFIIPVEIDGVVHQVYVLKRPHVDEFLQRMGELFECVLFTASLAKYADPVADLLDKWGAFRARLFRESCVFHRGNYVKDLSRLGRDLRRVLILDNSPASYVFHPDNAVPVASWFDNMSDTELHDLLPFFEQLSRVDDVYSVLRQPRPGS

[17] = target: T5, Small ubiquitin-related modifier 1 (Homo sapiens, UniProt P63165); experiment: inhibitors of SUMO1 peptide binding, dose response, biochemical, fluorescence polarization, uHTS hits (AID 624382); format: functional; conditions: read-out: IC50_Mean
T5 sequence (P63165 whole entry): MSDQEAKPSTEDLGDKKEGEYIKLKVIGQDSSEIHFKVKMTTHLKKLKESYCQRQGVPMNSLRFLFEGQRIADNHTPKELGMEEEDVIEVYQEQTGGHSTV

[18] = target: T6, Probable nicotinate-nucleotide adenylyltransferase (Staphylococcus aureus (strain N315), UniProt P65502); format: functional, Staphylococcus aureus subsp. aureus N315;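 on IC50 Mean: confirmatory dose-response retesting of NadD inhibitor hits first found in an ultra-high-throughput screen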
T6 sequence (P65502 whole entry): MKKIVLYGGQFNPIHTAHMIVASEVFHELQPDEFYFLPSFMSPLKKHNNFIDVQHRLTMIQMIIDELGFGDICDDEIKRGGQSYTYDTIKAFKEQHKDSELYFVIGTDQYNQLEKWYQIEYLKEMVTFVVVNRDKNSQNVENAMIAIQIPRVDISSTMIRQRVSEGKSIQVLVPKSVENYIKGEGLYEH

[19] = target: T6, Probable nicotinate-nucleotide adenylyltransferase; format: functional, Staphylococcus aureus subsp. aureus N315; conditions: read-out: IC50_Mean
[20] = target: T5, Small ubiquitin-related modifier 1; experiment: inhibitors of SUMO1 partner interactions, dose response, biochemical, FRET (AID 624383); format: functional; conditions: read-out: IC50_Mean
Protein Tat = Protein Tat (Human immunodeficiency virus type 1 group M subtype B (isolate HXB2)(HIV-1), UniProt P04608); format: functional;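 further: tat binding to TAR RNA read out by fluorescence polarization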
Sequence of Protein Tat (P04608 whole entry): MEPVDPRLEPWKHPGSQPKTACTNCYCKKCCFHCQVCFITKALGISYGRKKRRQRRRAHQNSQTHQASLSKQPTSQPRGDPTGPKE

[21] = THP-1 cell cytotoxicity, dose response, cytotoxicity control for Vif-APOBEC3G degradation inhibitor project, THP-1 cells (AID 1117359); format: functional; conditions: Human immunodeficiency virus 1, THP-1
[22] = target: T2, Mannose-6-phosphate isomerase; experiment: inhibitors of human PMI, primary screen, biochemical, fluorescence intensity, coupled assay (AID 1209)
Nonstructural protein 1 = Nonstructural protein 1 (Influenza A virus, UniProt Q194T2); format: functional, Influenza A virus (A/California/07/2009(H1N1))
Sequence of Nonstructural protein 1 (Q194T2 whole entry): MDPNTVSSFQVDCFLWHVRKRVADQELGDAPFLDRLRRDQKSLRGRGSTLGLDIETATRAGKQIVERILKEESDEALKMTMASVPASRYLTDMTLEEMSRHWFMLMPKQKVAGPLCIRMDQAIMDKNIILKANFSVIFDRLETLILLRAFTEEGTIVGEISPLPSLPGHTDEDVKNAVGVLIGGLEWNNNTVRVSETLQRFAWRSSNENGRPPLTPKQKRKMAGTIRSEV

COc1ccc(-c2ccc3cc(C(=O)O)ccc3c2)cc1C12CC3CC(CC(C3)C1)C2
IC50 [1]: > 10 µM (inactive) | IC50 [2]: 0.405 µM (active) | IC50 [3]: 0.444 µM (active) | IC50 [4]: 0.59 µM (active) | IC50 [5]: 1.78 µM (active) | IC50 [6]: 0.787 µM (active) | IC50 [7]: > 10 µM (inactive) | IC50 [8]: 1.12 µM (active) | IC50 [9]: 0.597 µM (active)

Cc1ccc2nc(-c3ccccc3)c(-c3ccccc3)nc2c1
IC50 [10]: > 109 µM (inactive) | IC50 [11]: > 83.3 µM (inactive)

Oc1c(Cl)cc(Cl)c2c1NCCC2
EC50 [12]: 5.36 µM (active) | EC50 (Streptokinase A): > 150 µM (not active) | EC50 (Streptococcus): 85.5 µM (active) | IC50 [13]: 25.3 µM (active) | CC50 (Vero): 34.5 µM (active) | IC50 [14]: 31.4 µM (active)

CCOc1ccc(NC(=O)CCN2CCN(c3ccccc3)CC2)cc1
IC50 [15]: > 100 µM (active)

CC(C)(C)c1cccc(OCCCSc2ncccn2)c1
IC50 [10]: > 109 µM (inactive) | IC50 [11]: > 83.3 µM (inactive)

O=C(COC(=O)c1c2c(nc3ccccc13)/C(=C\c1ccco1)CC2)NC1CCCC1
IC50 [16]: 2.49 µM (active) | IC50 [17]: > 66.6 µM (inactive) | IC50 [18]: 8.49 µM (active) | IC50 [19]: 16.9 µM (active) | IC50 [20]: 10.4 µM (active) | IC50 (Protein Tat): > 100 µM (active) | CC50 [21]: > 40 µM (active)

NC(=S)N/N=C/c1cccc(O)c1O
IC50 [22]: 11 µM (active) | IC50 (Nonstructural protein 1): 4.5 µM (active) | IC50 [14]: 31.5 µM (active)
